# Read-outs that look alike come from different tables or passages of the source.
# Assays:
# [1] = target: P. falciparum apicoplast DNA polymerase (Pf-apPOL) (Plasmodium falciparum, UniProt Q8ILY1); experiment: Fluorescence-based high-throughput DNA polymerase assay (molecular beacon), primary screen and dose-response; assay type: biochemical; conditions: for DNA Pol: 90 min, 10 µM;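 as to % inhibition ApPOL 90': test concentration in µM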;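 as to % inhibition Apol 40': compound concentration given in µM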;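 as to % inhibition apPOL 180': test concentration in µM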
# How it was run: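 Single-point screening used 10 µM compound with 20 nM polymerase, 20 nM hairpin substrate and 6 µM dNTPs for 90 min at 25 °C. Confirmatory titrations (2.5–80 µM) followed fluorescence at three times, and IC50 was derived from a fit including a cooperativity term n.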
# [2] = target: Babesia bovis apicoplast DNA polymerase (Bb-apPOL); experiment: In vitro DNA polymerase inhibition assay, Bb-apPOL; assay type: biochemical; conditions: Table 2
# Method: Codon-optimized, exonuclease-deficient Pf-apPOL was overexpressed in E. coli BL21 (DE3) and purified as described. The protein was dialysed against two, 1-liter changes of 20 mM Tris-HCl (pH 8.0), 400 mM NaCl, and 20% glycerol. Plasmodium bergei and Babesia bovis apPOLs (Pb-apPOL and Bb-apPOL, respectively) were codon-optimized, expressed, and purified as for Pf-apPOL[15]. Bacteriophage T4 DNA polymerase was purified as described. The DNA oligonucleotides used to make the high-throughput substrate were obtained from Integrated DNA Technologies. Deoxynucleotides were purchased from Strategene. All other materials came from Fisher Scientific.
# We tested the ability of the 102 compounds to kill P. falciparum parasites cultured in human red blood cells. Due to the number of compounds, we used a single inhibitor concentration of 20 µM and performed experiments in triplicate. […] These compounds were then tested in a dose-response format against chloroquine resistant P. falciparum parasites (Dd2) and the resulting data were fit to a sigmoidal growth inhibition curve to determine EC50 values (Figure 5, Table 2). […] Finally, to determine if the compounds were killing the parasites solely via apicoplast disruption, the dose-response curves were also performed with 1 mM isopentylpyrophosphate (IPP) in the growth media (Table 2). […] Very little is known regarding mitochondrial DNA replication in P. falciparum; however, signal sequence identification algorithms have predicted that the other bacterial A-family DNA polymerase residing in P. falciparum is targeted to the mitochondria (PF3D7_0625300)[29]. […] We are currently in the process of cloning and expressing this putative mitochondrial DNA polymerase to determine the effect of these compounds on its activity.
# [3] = read-out: IC50 Pf-apPOL, Table 2
# [4] = supplemental file 2, sheet IC50 nontoxic compounds, Pf-apPOL
# P. falciparum apicoplast DNA polymerase (Pf-apPOL), sequence (Q8ILY1 entry or part of it): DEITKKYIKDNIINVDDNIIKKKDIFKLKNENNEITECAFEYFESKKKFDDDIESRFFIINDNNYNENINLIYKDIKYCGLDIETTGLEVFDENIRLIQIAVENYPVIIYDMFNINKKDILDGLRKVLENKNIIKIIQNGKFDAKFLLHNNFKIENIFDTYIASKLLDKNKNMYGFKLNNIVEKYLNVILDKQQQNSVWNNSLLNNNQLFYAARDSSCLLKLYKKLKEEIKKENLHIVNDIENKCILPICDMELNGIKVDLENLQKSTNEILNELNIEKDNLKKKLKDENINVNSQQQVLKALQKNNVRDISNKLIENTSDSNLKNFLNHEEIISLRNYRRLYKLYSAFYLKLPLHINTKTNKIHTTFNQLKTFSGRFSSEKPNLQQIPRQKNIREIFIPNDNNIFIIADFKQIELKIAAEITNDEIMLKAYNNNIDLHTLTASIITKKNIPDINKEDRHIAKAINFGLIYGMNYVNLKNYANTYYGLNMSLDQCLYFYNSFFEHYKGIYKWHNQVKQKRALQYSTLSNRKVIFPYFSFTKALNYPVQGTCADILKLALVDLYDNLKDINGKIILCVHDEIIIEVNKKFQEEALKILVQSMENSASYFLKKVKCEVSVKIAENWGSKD
structure (smiles),measurement,setting,value
O=C(O)c1ccc(-c2nc3cc(-c4ccc5nc(-c6ccc(C(=O)O)cc6)[nH]c5c4)ccc3[nH]2)cc1 [Molecule 1],IC50,[1]; [3],5.9 ± 0.9 µM
same,IC50,[1]; [4],5.92 µM
same,IC50,[2],3.7 ± 0.2 µM
COc1ccc(CNC(=O)Cn2nc3c(c2NC(=O)Cc2cccs2)CSC3)cc1 [Molecule 55],IC50,[1]; [3],10 ± 2 µM
same,IC50,[1]; [4],10.5 µM
same,IC50,[2],1.5 ± 1 µM
"CC(C)(C)OC(=O)COc1ccc2cc(-c3ccccc3)c(=O)oc2c1 [Molecule 81, O=C(OC(C)(C)C)COc1ccc2c(c1)oc(=O)c(c2)c1ccccc1]",DNA Pol,[1]; 'DNA Pol' of the 186 hits list (primary screen value),44
same,DNA Pol,[1]; DNA Pol (primary screen value),44
same,% inhibition Apo pol 10',"[1]; DRC-1, concentration 2.5",-2.0657%
same,% inhibition Apo pol 10',"[1]; DRC-1, concentration 5",-5.666%
same,% inhibition Apo pol 10',"[1]; DRC-1, concentration 10",3.988%
same,% inhibition Apo pol 10',"[1]; DRC-1, concentration 20",8.332%
same,% inhibition Apo pol 10',"[1]; DRC-1, concentration 40",16.7579%
same,% inhibition Apo pol 10',"[1]; DRC-1, concentration 80",23.4286%
same,% inhibition Apol 90',"[1]; DRC-1, concentration 2.5",2.03%
same,% inhibition Apol 90',"[1]; DRC-1, concentration 5",3.443%
same,% inhibition Apol 90',"[1]; DRC-1, concentration 10",16.0875%
same,% inhibition Apol 90',"[1]; DRC-1, concentration 20",22.5271%
same,% inhibition Apol 90',"[1]; DRC-1, concentration 40",30.9519%
same,% inhibition Apol 90',"[1]; DRC-1, concentration 80",41.1721%
same,% inhibition apPOL 180',"[1]; DRC-1, concentration 2.5",5.717%
same,% inhibition apPOL 180',"[1]; DRC-1, concentration 5",14.8656%
same,% inhibition apPOL 180',"[1]; DRC-1, concentration 10",30.2199%
same,% inhibition apPOL 180',"[1]; DRC-1, concentration 20",41.9896%
same,% inhibition apPOL 180',"[1]; DRC-1, concentration 40",50.3603%
same,% inhibition apPOL 180',"[1]; DRC-1, concentration 80",64.7026%
same,% inhibition Apo pol 5',"[1]; DRC-2, concentration 2.5",8%
same,% inhibition Apo pol 5',"[1]; DRC-2, concentration 5",10%
same,% inhibition Apo pol 5',"[1]; DRC-2, concentration 10",23%
same,% inhibition Apo pol 5',"[1]; DRC-2, concentration 20",28%
same,% inhibition Apo pol 5',"[1]; DRC-2, concentration 40",36%
same,% inhibition Apo pol 5',"[1]; DRC-2, concentration 80",44%
same,% inhibition Apol 40',"[1]; DRC-2, concentration 2.5",5.4%
same,% inhibition Apol 40',"[1]; DRC-2, concentration 5",-3%
same,% inhibition Apol 40',"[1]; DRC-2, concentration 10",19%
same,% inhibition Apol 40',"[1]; DRC-2, concentration 20",25%
same,% inhibition Apol 40',"[1]; DRC-2, concentration 40",33%
same,% inhibition Apol 40',"[1]; DRC-2, concentration 80",44%
same,% inhibition ApPOL 90',"[1]; DRC-2, concentration 2.5",3.57%
same,% inhibition ApPOL 90',"[1]; DRC-2, concentration 5",-14%
same,% inhibition ApPOL 90',"[1]; DRC-2, concentration 10",13%
same,% inhibition ApPOL 90',"[1]; DRC-2, concentration 20",18%
same,% inhibition ApPOL 90',"[1]; DRC-2, concentration 40",27%
same,% inhibition ApPOL 90',"[1]; DRC-2, concentration 80",38%
same,% inhibition apPOL 180',"[1]; DRC-2, concentration 2.5",-1.44%
same,% inhibition apPOL 180',"[1]; DRC-2, concentration 5",-93%
same,% inhibition apPOL 180',"[1]; DRC-2, concentration 10",1.59%
same,% inhibition apPOL 180',"[1]; DRC-2, concentration 20",2.69%
same,% inhibition apPOL 180',"[1]; DRC-2, concentration 40",13%
same,% inhibition apPOL 180',"[1]; DRC-2, concentration 80",23%
CCOc1nc2cccc(C(=O)OC(C)OC(=O)OC3CCCCC3)c2n1Cc1ccc(-c2ccccc2-c2nnn[nH]2)cc1 (stereo not shown) [Molecule 94],IC50,[1]; [3],7.6 ± 0.6 µM
same,IC50,[1]; [4],7.66 µM
same,IC50,[2],30 ± 3 µM
OC(C#Cc1ccccc1)c1ccco1 (stereo not shown) [Molecule 95],IC50,[1]; [3],7.4 ± 0.4 µM
same,IC50,[1]; [4],7.4 µM
same,IC50,[2],2.5 ± 0.2 µM
"Cc1ccc(C(=O)/C=C/C=C/C=C/N(C)C)o1 [Molecule 96, CN(/C=C/C=C/C=C/C(=O)c1ccc(o1)C)C]",DNA Pol,"[1]; ""DNA Pol"" of the 186 hits list (screen value)",48
same,% inhibition Apo pol 10',"[1]; DRC-1, concentration 2.5",21.8998%
same,% inhibition Apo pol 10',"[1]; DRC-1, concentration 5",52.2247%
same,% inhibition Apo pol 10',"[1]; DRC-1, concentration 10",71.8634%
same,% inhibition Apo pol 10',"[1]; DRC-1, concentration 20",65.9561%
same,% inhibition Apo pol 10',"[1]; DRC-1, concentration 40",68.0612%
same,% inhibition Apo pol 10',"[1]; DRC-1, concentration 80",57.2941%
same,% inhibition Apol 90',"[1]; DRC-1, concentration 2.5",11.0382%
same,% inhibition Apol 90',"[1]; DRC-1, concentration 5",37.6511%
same,% inhibition Apol 90',"[1]; DRC-1, concentration 10",62.1527%
same,% inhibition Apol 90',"[1]; DRC-1, concentration 20",58.9151%
same,% inhibition Apol 90',"[1]; DRC-1, concentration 40",72.0375%
same,% inhibition Apol 90',"[1]; DRC-1, concentration 80",69.2174%
same,% inhibition apPOL 180',"[1]; DRC-1, concentration 2.5",1.481%
same,% inhibition apPOL 180',"[1]; DRC-1, concentration 5",22.6897%
same,% inhibition apPOL 180',"[1]; DRC-1, concentration 10",46.7432%
same,% inhibition apPOL 180',"[1]; DRC-1, concentration 20",45.7545%
same,% inhibition apPOL 180',"[1]; DRC-1, concentration 40",68.8362%
same,% inhibition apPOL 180',"[1]; DRC-1, concentration 80",73.043%
same,% inhibition Apo pol 5',"[1]; DRC-2, concentration 2.5",1.29%
same,% inhibition Apo pol 5',"[1]; DRC-2, concentration 5",13%
same,% inhibition Apo pol 5',"[1]; DRC-2, concentration 10",21%
same,% inhibition Apo pol 5',"[1]; DRC-2, concentration 20",2.29%
same,% inhibition Apo pol 5',"[1]; DRC-2, concentration 40",-21%
same,% inhibition Apo pol 5',"[1]; DRC-2, concentration 80",-45%
same,% inhibition Apol 40',"[1]; DRC-2, concentration 2.5",3.43%
same,% inhibition Apol 40',"[1]; DRC-2, concentration 5",26%
same,% inhibition Apol 40',"[1]; DRC-2, concentration 10",44%
same,% inhibition Apol 40',"[1]; DRC-2, concentration 20",42%
same,% inhibition Apol 40',"[1]; DRC-2, concentration 40",32%
same,% inhibition Apol 40',"[1]; DRC-2, concentration 80",20%
same,% inhibition ApPOL 90',"[1]; DRC-2, concentration 2.5",1%
same,% inhibition ApPOL 90',"[1]; DRC-2, concentration 5",23%
same,% inhibition ApPOL 90',"[1]; DRC-2, concentration 10",44%
same,% inhibition ApPOL 90',"[1]; DRC-2, concentration 20",47%
same,% inhibition ApPOL 90',"[1]; DRC-2, concentration 40",44%
same,% inhibition ApPOL 90',"[1]; DRC-2, concentration 80",38%
same,% inhibition apPOL 180',"[1]; DRC-2, concentration 2.5",-4.64%
same,% inhibition apPOL 180',"[1]; DRC-2, concentration 5",13%
same,% inhibition apPOL 180',"[1]; DRC-2, concentration 10",36%
same,% inhibition apPOL 180',"[1]; DRC-2, concentration 20",47%
same,% inhibition apPOL 180',"[1]; DRC-2, concentration 40",51%
same,% inhibition apPOL 180',"[1]; DRC-2, concentration 80",53%
same,DNA Pol,"[1]; primary screen value, DNA Pol",48
